Data published in patent US8163909B2, “Substituted hydroxyethyl amine compounds as beta-secretase modulators and methods of use” (Amgen Inc., priority 2007, dated 2012).
Like-named read-outs stand apart in the source and are kept apart here.

Assays:
[1] = target: Beta Secretase enzyme (BACE) (Homo sapiens, UniProt P56817); assay: In vitro enzymatic BACE FRET (fluorescence resonance energy transfer) assay; assay type: biochemical;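 note: fluorescence read after 1 h with 50 nM quenched peptide substrate spanning the BACE cleavage site, in pH 4.2 acetate buffer containing 10% DMSO and nonionic detergent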
Sequence of Beta Secretase enzyme (BACE) (P56817 46-501): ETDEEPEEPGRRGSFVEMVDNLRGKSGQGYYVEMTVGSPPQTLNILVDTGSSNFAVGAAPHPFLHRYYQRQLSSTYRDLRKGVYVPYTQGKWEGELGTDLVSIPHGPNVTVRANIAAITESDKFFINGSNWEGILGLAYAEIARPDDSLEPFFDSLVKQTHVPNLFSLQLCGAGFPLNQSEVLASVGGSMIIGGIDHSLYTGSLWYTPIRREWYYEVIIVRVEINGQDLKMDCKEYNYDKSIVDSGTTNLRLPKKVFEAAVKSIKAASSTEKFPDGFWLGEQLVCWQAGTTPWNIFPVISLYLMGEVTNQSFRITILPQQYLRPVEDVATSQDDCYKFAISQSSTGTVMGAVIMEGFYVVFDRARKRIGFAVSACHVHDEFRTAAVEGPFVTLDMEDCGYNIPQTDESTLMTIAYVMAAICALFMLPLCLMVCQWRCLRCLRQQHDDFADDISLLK

[2] = tested on: Aβ40 in conditioned medium of cells stably expressing Amyloid Precursor Protein (APP); assay: In vitro BACE cell-based assay (Aβ40 in conditioned medium, sandwich ELISA);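 note: compounds added as a dilution series, secreted peptide quantified by europium time-resolved fluorescence readout, potency fitted from percent of control versus compound concentration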
[3] = BACE enzyme FRET assay, read-out: BACE1 FRET assay (IC50)
[4] = Homo sapiens, HEK293, HEK cells, cell-based assay, read-out: HEK cell assay (IC50)
[5] = Table 1, read-out: BACE1 FRET assay
[6] = Homo sapiens, HEK293, Table 1, HEK cells, read-out: HEK cell assay
[7] = BACE enzyme assay, read-out: BACE1 FRET assay (IC50)
[8] = HEK cells, cell-based assay, read-out: HEK cell assay (IC50)

Work on `COCC(=O)N[C@@H](Cc1cccc(F)c1)[C@H](O)CN[C@H]1CC2(CCC2)Oc2cnc(CC(C)(C)F)cc21` [compound 252] yielded an IC50 [1, 3] of 0.0236 µM and an IC50 [2, 4] of 0.0538 µM.
`CC(=O)N[C@@H](Cc1cccc(F)c1)[C@H](O)CN[C@H]1CC2(CCC2)Oc2ccc(CC(C)(C)F)cc21` [compound 201, N-((1S,2R)-3-(((4S)-6-(2-fluoro-2-methylpropyl)-3,4-dihydrospiro[chromene-2,1′-cyclobutan]-4-yl)amino)-1-((3-fluorophenyl)methyl)-2-hydroxypropyl)acetamide] was tested, and the IC50 [1, 3] was 0.0201 µM and the IC50 [2, 4] was 0.0768 µM.
`COCC(=O)N[C@@H](Cc1ccccc1)[C@H](O)CN[C@H]1CC2(CCC2)Oc2ncc([C@H](F)C(C)(C)C)cc21` [compound 356] was tested, and the IC50 [1, 5] was 0.00317 µM and the IC50 [2, 6] was 0.00646 µM.
With `CNc1nc(CC(C)(C)C)cc2c1OC1(CCC1)C[C@@H]2NC[C@@H](O)[C@H](Cc1ccccc1)NC(=O)COC` [compound 112] the IC50 [1, 7] was 0.0304 µM and the IC50 [2, 4] was 0.00893 µM.
`COCC(=O)N[C@@H](Cc1cccc(F)c1)[C@H](O)CN[C@H]1CC2(CCC2)Oc2c1cc(CC(C)(C)C)nc2OCC(F)(F)F` [compound 140, N-((1S,2R)-3-(((4′S)-6′-(2,2-dimethylpropyl)-8′-((2,2,2-trifluoroethyl)oxy)-3′,4′-dihydrospiro[cyclobutane-1,2′-pyrano[2,3-c]pyridin]-4′-yl)amino)-1-((3-fluorophenyl)methyl)-2-hydroxypropyl)-2-(methyloxy)acetamide] gave an IC50 [1, 7] of 0.00775 µM and an IC50 [2, 4] of 0.115 µM.
Work on `CC(C)(C)Cc1cnc2c(c1)[C@@H](NC[C@@H](O)[C@H](Cc1cc(F)cc(F)c1)NC(=O)C(C)(Cl)Cl)CC1(CCC1)O2` [compound 97] yielded an IC50 [1, 7] of 0.0138 µM and an IC50 [2, 4] of 0.385 µM.
In the case of `COCC(=O)N[C@@H](Cc1ccc2c(c1)OCO2)[C@H](O)CN[C@H]1CC2(CCC2)Cc2ncc(CC(C)(C)C)cc21` [compound 168], the IC50 [1, 7] is reported as 0.149 µM and the IC50 [2, 4] is reported as 0.211 µM.
For `CCOCC(=O)N[C@@H](Cc1ccc2c(c1)OCO2)[C@H](O)CN[C@H]1CC2(CCC2)Oc2ncc(CC(C)C)cc21` [compound 720], the IC50 ([1]; BACE enzyme assay IC50, read-out: BACE1 FRET assay) was 0.057 µM and the IC50 ([2]; Homo sapiens, HEK293, HEK cell-based assay IC50, read-out: HEK cell assay) was 0.134 µM.
`COCC(=O)N[C@@H](Cc1ccc2c(c1)OCO2)[C@H](O)CN[C@H]1CC2(CCC2)Oc2ncc(CC(C)(F)F)cc21` [compound 276] gave an IC50 [1, 3] of 0.076 µM and an IC50 [2, 4] of 0.0872 µM.
Work on `CC(C)(C)Cc1cnc2c(c1)[C@@H](NC[C@@H](O)[C@H](Cc1cc(F)cc(F)c1)NC(=O)C(F)(F)Cl)CC1(CCC1)O2` [compound 96] yielded an IC50 [1, 7] of 0.00023 µM and an IC50 [2, 4] of 0.0432 µM.
Work on `CO[C@H](C)C(=O)N[C@@H](Cc1cccc(F)c1F)[C@H](O)CN[C@H]1CC2(CCC2)Oc2ncc(CC(C)(C)F)cc21` [compound 71] yielded an IC50 [1, 7] of 0.0339 µM and an IC50 [2, 4] of 0.0927 µM.
Work on `COCC(=O)N[C@@H](Cc1ccc2c(c1)OCO2)[C@H](O)CN[C@H]1CC2(CCC2)Oc2cnc(CC(C)(C)C)cc21` [compound 119] yielded an IC50 [1, 7] of 0.203 µM and an IC50 [2, 4] of 0.127 µM.
Compound `CC(=O)N[C@@H](Cc1ccc2c(c1)OCO2)[C@H](O)CN[C@H]1CC2(CCC2)Cc2ncc(CC(C)(C)C)cc21` [compound 167] has an IC50 [1, 7] of 0.125 µM and an IC50 [2, 4] of 0.0684 µM.
`CC(=O)N[C@@H](Cc1ccc(F)cc1)[C@H](O)CN[C@H]1C[C@]2(CC[C@H]2O)Oc2ncc(CC(C)(C)C)cc21` [compound 118] gave an IC50 [1, 7] of 0.00911 µM and an IC50 [2, 4] of 0.028 µM.
`COCC(=O)N[C@@H](Cc1ccc2c(c1)OCO2)[C@H](O)CN[C@H]1CC2(CCC2)Oc2nc(F)c(CC(C)C)cc21` [compound 337] gave an IC50 [1, 5] of 0.12 µM and an IC50 [2, 6] of 0.531 µM.
With `CC(=O)N[C@@H](Cc1cccc(F)c1C)[C@H](O)CN[C@H]1CC2(CCC2)Oc2ncc(CC(C)(C)C)cc21` [compound 109] the IC50 [1, 7] was 0.0723 µM and the IC50 [2, 4] was 0.319 µM.
Work on `COCC(=O)NC(Cc1ccc(Cl)cc1)C(O)CNC1CC2(CC(O)C2)Oc2ncc(CC(C)(C)C)cc21` [compound 234, N-((1S,2R)-1-((4-chlorophenyl)methyl)-3-(((1s,3S,4′S)-6′-(2,2-dimethylpropyl)-3-hydroxy-3′,4′-dihydrospiro[cyclobutane-1,2′-pyrano[2,3-b]pyridin]-4′-yl)amino)-2-hydroxypropyl)-2-(methyloxy)acetamide] yielded an IC50 [1, 3] of 0.00404 µM and an IC50 [2, 4] of 0.0135 µM.
In the case of `COCC(=O)N[C@@H](Cc1cccc(F)c1)[C@H](O)CN[C@H]1CC2(CCC2)Oc2ncc(CC(F)(F)F)cc21` [compound 350], the IC50 [1, 5] is reported as 0.00909 µM and the IC50 [2, 6] is reported as 0.0245 µM.
Compound `CNc1nc(CC(C)(C)C)cc2c1OC1(CCC1)C[C@@H]2NC[C@@H](O)[C@H](Cc1ccc2c(c1)OCO2)NC(=O)[C@@H](C)OC` [compound 136] has an IC50 [1, 7] of 0.0411 µM and an IC50 [2, 4] of 0.0163 µM.
`COCC(=O)N[C@@H](Cc1ccc2c(c1)OCO2)[C@H](O)CN[C@H]1CC2(CCC2)Oc2ncc(CC3(C(F)(F)F)CC3)cc21` [compound 313] was tested, and the IC50 [1, 3] was 0.151 µM and the IC50 [2, 4] was 0.327 µM.
Compound `COC(C)C(=O)NC(Cc1ccc2c(c1)OCO2)C(O)CNC1CC2(CC(O)C2)Oc2cnccc21` [compound 243, (2R)—N-((1S,2R)-1-(1,3-benzodioxol-5-ylmethyl)-2-hydroxy-3-(((1s,3S,4′S)-3-hydroxy-3′,4′-dihydrospiro[cyclobutane-1,2′-pyrano[2,3-c]pyridin]-4′-yl)amino)propyl)-2-(methyloxy)propanamide] has an IC50 [1, 3] of 36.1 µM and an IC50 [2, 8] of 3.33 µM.
`COCC(=O)N[C@@H](Cc1ccc2c(c1)OCO2)[C@H](O)CN[C@H]1CC2(CCC2)Oc2ncc(CC(C)(C)F)cc21` [compound 285] was tested, and the IC50 [1, 3] was 0.057 µM and the IC50 [2, 4] was 0.0738 µM.
Compound `CO[C@H](C)C(=O)N[C@@H](Cc1ccc2c(c1)OCO2)[C@H](O)CN[C@H]1CC2(CCC2)Oc2ncc(CC(C)C)cc21` [compound 335] has an IC50 [1, 5] of 0.0383 µM and an IC50 [2, 6] of 0.0765 µM.
For `CC(=O)N[C@@H](Cc1ccc2c(c1)OCO2)[C@H](O)CN[C@H]1CC2(CCC2)Oc2ncc(CC(C)(F)F)cc21` [compound 275], the IC50 [1, 3] was 0.082 µM and the IC50 [2, 4] was 0.0638 µM.
With `CC(=O)N[C@@H](Cc1ccc(F)cc1)[C@H](O)CN[C@H]1CC2(CCC2)Oc2c(F)cc(CC(C)(C)C)cc21` [compound 174] the IC50 [1, 7] was 0.0072 µM and the IC50 [2, 4] was 0.0526 µM.
`COCC(=O)N[C@@H](Cc1ccc2c(c1)OCO2)[C@H](O)CN[C@H]1CC2(CCC2)Oc2ncc(CC(C)C)cc21` [compound 334] gave an IC50 [1, 5] of 0.048 µM and an IC50 [2, 6] of 0.0672 µM.
For `COCC(=O)N[C@@H](Cc1ccccc1)[C@H](O)CN[C@H]1CC2(CCC2)Oc2ncc(CC(C)(F)F)cc21` [compound 273], the IC50 [1, 3] was 0.0149 µM and the IC50 [2, 4] was 0.0265 µM.
Compound `COCC(=O)N[C@@H](Cc1ccc(F)cc1)[C@H](O)CN[C@H]1CC2(CCC2)Oc2c(F)cc(CC(C)(C)C)cc21` [compound 229] has an IC50 [1, 3] of 0.00819 µM and an IC50 [2, 4] of 0.0856 µM.
For `CO[C@H](C)C(=O)N[C@@H](Cc1cccc(F)c1)[C@H](O)CN[C@H]1CC2(CCC2)Oc2ncc(CC(F)(F)F)cc21` [compound 344], the IC50 [1, 5] was 0.00894 µM and the IC50 [2, 6] was 0.0442 µM.
In the case of “1-cyclobutyl-N-((1S,2R)-3-(((4′S)-6′-(2,2-dimethylpropyl)-3′,4′-dihydrospiro[cyclobutane-1,2′-pyrano[2,3-b]pyridin]-4′-yl)amino)-1-((4-fluorophenyl)methyl)-2-hydroxypropyl)-5-oxo-3-pyrrolidinecarboxamide [compound 67]”, the IC50 [1, 7] is reported as 0.471 µM and the IC50 [2, 8] is reported as 0.0625 µM.
`CC(=O)N[C@@H](Cc1ccc2c(c1)OCCO2)[C@H](O)CN[C@H]1CC2(CCC2)Oc2ncc(CC(C)(C)C)cc21` [compound 205] gave an IC50 [1, 3] of 0.0229 µM and an IC50 [2, 4] of 0.0229 µM.
`CC(C)(C)Cc1cnc2c(c1)[C@@H](NC[C@@H](O)[C@H](Cc1cccc(C#N)c1)NC(=O)[C@@H](O)C(F)(F)F)CC1(CCC1)O2` [compound 62] was tested, and the IC50 [1, 7] was 0.00401 µM and the IC50 [2, 4] was 0.00983 µM.
